# From US10093646B2, “1-pyridazin-/triazin-3-yl-piper(-azine)/idine/pyrolidine derivatives and compositions thereof for inhibiting the activity of SHP2” (Novartis AG, priority 2014, dated 2018)
# pIC50: −log10 of the molar value.
# Molecular target: SHP2 (Homo sapiens (Human), UniProt Q06124)
# Assay: SHP2 Allosteric Inhibition Assay (DiFMUP prompt fluorescence)
# Assay type: biochemical
# Details: 0.5 nM SHP2 activated with 0.5 μM peptide IRS1_pY1172(dPEG8)pY1222, substrate DiFMUP
# From the text: SHP2 Allosteric Inhibition Assay
# SHP2 is allosterically activated through binding of bis-tyrosyl-phosphorylated peptides to its Src Homology 2 (SH2) domains.
# Sequence of SHP2 (Q06124 whole entry): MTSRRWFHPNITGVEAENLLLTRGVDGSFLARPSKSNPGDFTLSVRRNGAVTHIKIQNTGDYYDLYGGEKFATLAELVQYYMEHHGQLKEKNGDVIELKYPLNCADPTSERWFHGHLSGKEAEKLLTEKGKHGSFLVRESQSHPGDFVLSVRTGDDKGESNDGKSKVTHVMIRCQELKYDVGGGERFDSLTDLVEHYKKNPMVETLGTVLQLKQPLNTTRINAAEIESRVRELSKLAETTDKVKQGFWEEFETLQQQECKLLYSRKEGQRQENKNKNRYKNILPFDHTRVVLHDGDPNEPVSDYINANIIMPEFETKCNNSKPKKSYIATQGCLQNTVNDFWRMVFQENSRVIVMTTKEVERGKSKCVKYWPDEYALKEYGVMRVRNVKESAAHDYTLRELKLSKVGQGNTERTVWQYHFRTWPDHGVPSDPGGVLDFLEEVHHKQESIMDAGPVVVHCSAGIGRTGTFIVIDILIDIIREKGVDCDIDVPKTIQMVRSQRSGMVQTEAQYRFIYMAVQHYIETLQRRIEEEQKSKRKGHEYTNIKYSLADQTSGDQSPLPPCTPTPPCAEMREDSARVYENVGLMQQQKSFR
structure (smiles),measurement,value
Nc1nc(N2CCC3NCCC3C2)cnc1-c1cccc(Cl)c1Cl (stereo not shown) [Example 10],pIC50,6.04
NCC1(c2ccccc2)CCN(c2cnc(-c3cccc(Cl)c3Cl)c(N)n2)CC1 [Example 12],pIC50,7.19
Nc1nc(N2CC3C(N)C3C2)cnc1-c1cccc(Cl)c1Cl (stereo not shown) [Example 13],pIC50,7.19
CCCC1(CN)CCN(c2cnc(-c3cccc(Cl)c3Cl)c(N)n2)CC1 [Example 15],pIC50,7.12
C[C@]1(N)CCN(c2cnc(-c3cccc(Cl)c3Cl)c(N)n2)C[C@@H]1O [Example 16],pIC50,7.03
NCC1(c2ccncc2)CCN(c2cnc(-c3cccc(Cl)c3Cl)c(N)n2)CC1 [Example 17],pIC50,6.99
NCC1(c2cnccn2)CCN(c2cnc(-c3cccc(Cl)c3Cl)c(N)n2)CC1 [Example 18],pIC50,7.03
NCC1(c2ccccn2)CCN(c2cnc(-c3cccc(Cl)c3Cl)c(N)n2)CC1 [Example 19],pIC50,6.96
Nc1nc(N2CC3CNCC32)cnc1-c1cccc(Cl)c1Cl (stereo not shown) [Example 20],pIC50,6.39
Nc1nc(N2CC3CNCC3C2)cnc1-c1cccc(Cl)c1Cl (stereo not shown) [Example 21],pIC50,6.99
